Measurements published in US11981693B2, “Organogermanium compound” (ASAI Germanium Research Institute Co., Ltd., priority 2019, dated 2024).
Where two headings read alike, the source gives them in different places.

Key:
[1] = Solubility of the THGP octamer in purified water or methanol, with pH of the solution; type: physicochemical
Description: To 100 mg of the THGP octamer obtained in (1), the process of adding purified water or methanol in small portions and stirring for 30 minutes at room temperature was repeated, and the volume of the solution was measured when the THGP octamer was visually observed to as completely dissolved. The solubility of the THGP octamer (Solute Amount (g)/Total Mass (g)×100%) was calculated from the measured volume. Furthermore, the pH of the solution was measured when the THGP octamer was completely dissolved.

[2] = Dissolution rate: time to visually complete dissolution in purified water; type: physicochemical
Description: 100 mg of Ge-132 and 100 mg of the THGP octamer were added to 10 mL of purified water, respectively, and the mixtures were stirred at 300 rpm at room temperature, and then the time required to be visually observed as completely dissolved was measured.

[3] = cited from earlier work
[4] = conventional THGP polymers, stated as known property

1,7,9,15-tetra(2′-sodium carboxyethylgermanium)-3,5,11,13-tetra-[sodium propanato(2-)-C^3′,O′]-germanium-2,4,6,8,10,12,14,16,17,18,19,20-dodecaoxa-pentacyclo[8.1^1,5.1^7,11.1^9,13.1^3,15.]icosane [THGP octamer]
pH of the aqueous solution (in words) ([1]; dissolved in water): neutral
solubility in methanol (Solute Amount (g)/Total Mass (g)×100%) ([1]; methanol, room temperature): 1.4%
solubility in water (Solute Amount (g)/Total Mass (g)×100%) ([1]; purified water, room temperature, visually complete dissolution): 58.8%
solubility (mass (g) of solute in 100 g of saturated solution) in water ([1]; water, 20° C.): 58.8%
pH of the aqueous solution ([1]; when completely dissolved in water): around 7.5
time required to completely dissolve ([2]; 100 mg in 10 mL purified water, 300 rpm, room temperature): approximately 10 seconds
dissolving time ([2]; water, 20° C., same conditions as Ge-132): approximately 10 seconds

poly-trans-[(2-carboxyethyl)germasesquioxane] [Ge-132]
time required for the crystals to completely dissolve ([2]; 100 mg in 10 mL purified water (1% aqueous solution), 300 rpm, room temperature): ≥ 30 min
time required for complete dissolution ([2]; 1% in water, 20° C.): ≥ 30 min
solubility in organic solvents, such as methanol [3, 4]: insoluble
solubility in water [3, 4]: approximately 1%
solubility (mass (g) of solute in 100 g of saturated solution) in water ([3]; water, 20° C., known comparator value): approximately 1%
